# Source: publication PMC11191095, “QSAR Reveals Decreased Lipophilicity of Polar Residues Determines the Selectivity of Antimicrobial Peptide Activity” (ACS Omega, 2024)
# Where a SMILES comes first, the peptide text is derived from it.
# Columns and labels:
# Test in all cases: microbe, parasite or virus in culture
# [1] = system: P. aeruginosa NCTC 13437; format: cell-based, Pseudomonas aeruginosa; conditions: for Modal MIC: P. aeruginosa NCTC 13437 (R)
# Procedure: (§1) Antimicrobial activity was evaluated against a panel of 18 pathogens consisting of eight Gram-negative strains (E. coli NCTC 12923, E. coli LEC001, Pseudomonas aeruginosa PAO1, P. aeruginosa NCTC 13437, Acinetobacter baumannii ATCC 17978, A. baumannii AYE, Klebsiella pneumoniae M6, K. pneumoniae NCTC 13368), four Gram-positive strains (Staphylococcus aureus ATCC 9144, S. aureus NCTC 13616, S. aureus USA300, S. aureus 1199B) and six fungi (Candida auris TDG 1912, C. albicans NCPF 8018, C. krusei NCPF 3876, C. tropicalis NCPF 8760, and C. parapsilosis NCPF 3209). Pathogens were grown in noncation adjusted Mueller Hinton broth (MHB, for bacteria) or Roswell Park Memorial Institute (RPMI 1640) + 2% glucose (for fungi) at 37 °C with 180 rpm shaking and maintained on solid media (tryptic soy agar for bacteria and Sabouraud dextrose agar for fungi). For an antibiogram, see Suppl.
# (§2) The 46 peptides were serially diluted (128 to 2 μg/mL) in media down polypropylene 96-well plates. Bacteria or fungi, diluted from an overnight culture to an OD600 of 0.01, were added to the serially diluted peptides at a 1:1 ratio resulting in a starting cell density of ∼5 × 10^5 CFU/mL. Plates were incubated at 37 °C for 20 h, and the optical density was determined spectrophotometrically at 600 nm. Minimum inhibition concentrations (MICs) were determined from a minimum of three biological repeats and are reported in μg/mL as well as μM. […] The MIC50 or MIC90 is defined as the lowest peptide concentration that results in 50% or 90% growth inhibition over a 20 h treatment period, respectively.
# [2] = system: K. pneumoniae NCTC 13368; format: cell-based, Klebsiella pneumoniae; conditions: for Modal MIC: K. pneumoniae NCTC 13368 (R)
# Procedure: as §1, §2
# [3] = system: S. aureus (MRSA) USA300; format: cell-based, Staphylococcus aureus; conditions: S. aureus (MRSA) USA300 (R)
# Procedure: as §1, §2
# [4] = system: S. aureus (MRSA) NCTC 13616; format: cell-based, Staphylococcus aureus; conditions: for Modal MIC: S. aureus (MRSA) NCTC 13616 (R)
# Procedure: as §1, §2
# [5] = system: S. aureus (MRSA) 1199B; format: cell-based, Staphylococcus aureus; conditions: for Modal MIC: S. aureus (MRSA) 1199B (R)
# Procedure: as §1, §2
# [6] = system: A. baumannii AYE; format: cell-based, Acinetobacter baumannii; conditions: for Modal MIC: A. baumannii AYE (R)
# Procedure: as §1, §2
# [7] = system: C. parapsilosis NCPF 3209; format: cell-based; conditions: NCPF 3209, 20 h
# Procedure: as §1, §2
# [8] = system: C. glabrata NCPF 8018; format: cell-based; conditions: NCPF 8018, 20 h
# Procedure: as §1, §2
# [9] = system: C. krusei NCPF 3876; format: cell-based; conditions: NCPF 3876, 20 h
# Procedure: as §1, §2
# [10] = system: C. albicans NCPF 3281; format: cell-based; conditions: NCPF 3281, 20 h
# Procedure: as §1, §2
# [11] = system: C. tropicalis NCPF 8760; format: cell-based; conditions: NCPF 8760, 20 h
# Procedure: as §1, §2
# [12] = system: C. auris TDG 1912; format: cell-based, Candida auris; conditions: TDG 1912, 20 h
# Procedure: as §1, §2
# [13] = system: P. aeruginosa PAO1; format: cell-based, Pseudomonas aeruginosa
# Procedure: as §1, §2
# [14] = system: K. pneumoniae M6; format: cell-based, Klebsiella pneumoniae
# Procedure: as §1, §2
# [15] = system: S. aureus (MSSA) ATCC 9144; format: cell-based, Staphylococcus aureus; conditions: 20 h
# Procedure: as §1, §2
# [16] = system: E. coli LEC001; format: cell-based, Escherichia coli
# Procedure: as §1, §2
# [17] = system: E. coli NCTC 12923; format: cell-based, Escherichia coli
# Procedure: as §1, §2
# [18] = system: A. baumannii ATCC 17978; format: cell-based, Acinetobacter baumannii
# Procedure: as §1, §2
# [19] = MHB, 37 °C, 20 h, OD600, min. three biological repeats
compound,measurement,setting,value
CC[C@H](C)[C@H](NC(=O)[C@@H](N)CCCCN)C(=O)N[C@@H](C)C(=O)N[C@@H](CCCCN)C(=O)N[C@H](C(=O)N[C@@H](C)C(=O)N[C@@H](CC(C)C)C(=O)N[C@@H](CCCCN)C(=O)N[C@@H](C)C(=O)N[C@@H](CC(C)C)C(N)=O)C(C)C [DRAMP02273a] (H-KIAKVALKAL-NH2),Modal MIC,[1]; [19],> 128 µg/mL
same,Modal MIC,[1]; shown in µM,> 117.5 µM
same,Modal MIC,[2]; [19],> 128 µg/mL
same,Modal MIC,[2]; shown in µM,> 117.5 µM
same,Modal MIC,[3]; [19],> 128 µg/mL
same,Modal MIC,[3]; shown in µM,> 117.5 µM
same,Modal MIC,[4]; [19],> 128 µg/mL
same,Modal MIC,[4]; shown in µM,> 117.5 µM
same,Modal MIC,[5]; [19],> 128 µg/mL
same,Modal MIC,[5]; shown in µM,> 117.5 µM
same,Modal MIC,[6]; [19],> 128 µg/mL
same,Modal MIC,[6]; shown in µM,> 117.5 µM
same,Modal MIC50,[7],> 117.5 µM
same,Modal MIC90,[7],> 117.5 µM
same,Modal MIC50,[8],> 117.5 µM
same,Modal MIC90,[8],> 117.5 µM
same,Modal MIC50,[9],> 117.5 µM
same,Modal MIC90,[9],> 117.5 µM
same,Modal MIC50,[10],> 117.5 µM
same,Modal MIC90,[10],> 117.5 µM
same,Modal MIC50,[11],> 117.5 µM
same,Modal MIC90,[11],> 117.5 µM
same,Modal MIC50,[12],> 117.5 µM
same,Modal MIC90,[12],> 117.5 µM
"NC[C@H]1O[C@H](O[C@H]2[C@H](O)[C@@H](O[C@H]3O[C@H](CO)[C@@H](O)[C@H](N)[C@H]3O)[C@H](N)C[C@@H]2N)[C@H](N)C[C@@H]1O [Tobramycin, reference compound]",MIC,"[13]; Pseudomonas aeruginosa, PAO1, 20 h, read-out: Modal MIC",2 µg/mL
same,MIC,"[1]; Pseudomonas aeruginosa, NCTC13437, 20 h, read-out: Modal MIC",64 µg/mL
same,MIC,"[14]; Klebsiella pneumoniae, M6, 20 h, read-out: Modal MIC",8 µg/mL
same,MIC,"[2]; Klebsiella pneumoniae, NCTC13368, 20 h, read-out: Modal MIC",64 µg/mL
same,MIC,"[4]; Staphylococcus aureus, 20 h, read-out: Modal MIC",0.5 µg/mL
same,MIC,"[5]; Staphylococcus aureus, MRSA, 20 h, read-out: Modal MIC",0.25 µg/mL
same,MIC,"[15]; Staphylococcus aureus, read-out: Modal MIC",0.25 to 0.5 µg/mL
same,MIC,"[16]; Escherichia coli, LEC001, 20 h, read-out: Modal MIC",8 µg/mL
same,MIC,"[17]; Escherichia coli, NCTC12923, 20 h, read-out: Modal MIC",16 µg/mL
same,MIC,"[18]; Acinetobacter baumannii, ATCC17978, 20 h, read-out: Modal MIC",4 µg/mL
same,MIC,"[6]; Acinetobacter baumannii, 20 h, read-out: Modal MIC",64 µg/mL
Gentamycin [reference compound],Modal MIC,"[13]; P. aeruginosa PAO1 (S), MHB, 37 °C, 20 h, OD600, min. three biological repeats",4 µg/mL
same,Modal MIC,[1]; [19],256 µg/mL
same,Modal MIC,"[14]; K. pneumoniae M6 (S), MHB, 37 °C, 20 h, OD600, min. three biological repeats",0.25 µg/mL
same,Modal MIC,[2]; [19],4 µg/mL
same,Modal MIC,[3]; [19],4 µg/mL
same,Modal MIC,[4]; [19],0.25 µg/mL
same,Modal MIC,[5]; [19],0.25 µg/mL
same,Modal MIC,"[15]; S. aureus (MSSA) ATCC 9144 (S), MHB, 37 °C, OD600, min. three biological repeats",0.25 µg/mL
same,Modal MIC,"[16]; E. coli LEC001 (R), MHB, 37 °C, 20 h, OD600, min. three biological repeats",4 µg/mL
same,Modal MIC,"[17]; E. coli NCTC 12923 (S), MHB, ~5×10^5 CFU/mL, 37 °C, 20 h, OD600, min. three biological repeats",1 µg/mL
same,Modal MIC,"[18]; A. baumannii ATCC 17978 (S), MHB, 37 °C, 20 h, OD600, min. three biological repeats",0.5 µg/mL
same,Modal MIC,[6]; [19],> 512 µg/mL
